# Results published in PMC3070406 (The Pediatric infectious disease journal, 2011).
# Experiments:
# matrix M2 protein = system: matrix M2 protein; set-up: species or system influenza A (H3N2) virus
# [1] = system: NA of influenza A (H3N2) virus isolates; assay type: biochemical; conditions: read-out: Susceptibility to oseltamivir (mean IC50 ± SD)
# [2] = system: NA of influenza A (H1N1) virus isolate; assay type: biochemical; conditions: read-out: Susceptibility to oseltamivir (mean IC50 ± SD)
SMILES,Susceptibility to adamantanes (S31N mutation in M2 protein) (matrix M2 protein),IC50 [1] [nM],IC50 [2] [nM]
NC12CC3CC(CC(C3)C1)C2 [amantadine],resistance,,
